Test results reported in patent US12168012B2, “NLRP3 inflammasome inhibitors” (Novartis AG, priority 2018, dated 2024).

Test system: NLRP3 inflammasome
Test: IL-1β secretion assay
Type: cell-based
Settings: Homo sapiens, THP-1, 3 h, PMA-differentiated THP-1 cells, 15 μM nigericin, HTRF
Procedure: 10 μL supernatant was removed, and IL-1p levels were monitored using an HTRF assay (CisBio, #62IL1PEC) according to manufacturers' instructions. Viability and pyroptosis was monitored with the addition of PrestoBlue cell viability reagent (Life Technologies, #A13261) directly to the cell culture plate.
(§1) IC50 values were calculated from the plot of percentage of inhibition versus the inhibitor concentration by a logistics fit according to: y=A2+(A1−A2)/(1+(x/IC50)^p) where y is the %-inhibition at the inhibitor concentration, x. A1 is the lowest inhibition value, i.e. 0%, and A2 the maximum inhibition value, i.e. 100%. The exponent, p, is the Hill coefficient. The curve fitting was conducted with an internally developed software suite.
NLRP3-dependent IL-1β secretion was stimulated in PMA-differentiated THP-1 cells by the addition of nigericin, and cytokines were measured in the […] after 3 hours. As discussed above, activation of the NLRP3 inflammasome requires both an NF-kB-dependent priming step and the addition of a NLRP3 activator.

Going from CC(C)(O)c1nn(CC(=O)N[C@@H]2CCCN(CC(F)(F)F)C2)c(=O)c2cc3sc(Cl)cc3n12 [Ex 82, (R)-2-(2-Chloro-5-(2-hydroxypropan-2-yl)-8-oxothieno[2′,3′:4,5]pyrrolo[1,2-d][1,2,4]triazin-7(8H)-yl)-N-(1-(2,2,2-trifluoroethyl)piperidin-3-yl)acetamide] to CCN1CCC[C@@H](NC(=O)Cn2nc(C(C)(C)O)n3c(cc4sc(Cl)cc43)c2=O)C1 [Ex 132, (R)-2-(2-Chloro-5-(2-hydroxypropan-2-yl)-8-oxothieno[2′,3′:4,5]pyrrolo[1,2-d][1,2,4]triazin-7(8H)-yl)-N-(1-ethylpiperidin-3-yl)acetamide], the IC50 falls from 42.2 nM to 0.8 nM (53-fold). The second is the more potent here.

Compared with CC(C)(O)c1nn(CC(=O)N[C@@H]2CCC[C@H](O)C2)c(=O)c2cc3sc(Cl)cc3n12 [Ex 81, 2-(2-Chloro-5-(2-hydroxypropan-2-yl)-8-oxothieno[2′,3′:4,5]pyrrolo[1,2-d][1,2,4]triazin-7(8H)-yl)-N-((1R,3S)-3-hydroxycyclohexyl)acetamide], CC(C)(O)c1nn(CC(=O)N[C@@H]2CCCN(C3CC3)C2)c(=O)c2cc3sc(Cl)cc3n12 [Ex 126, (R)-2-(2-Chloro-5-(2-hydroxypropan-2-yl)-8-oxothieno[2′,3′:4,5]pyrrolo[1,2-d][1,2,4]triazin-7(8H)-yl)-N-(1-cyclopropylpiperidin-3-yl)acetamide] is 6.5-fold lower in IC50: 3.9 nM for the first, 0.6 nM for the second. The second is the more potent here.

First: O=C(Cn1nc(C2CC2)n2c(cc3scnc32)c1=O)Nc1cccnc1 [Ex 4, 2-(5-Cyclopropyl-8-oxothiazolo[5′,4′:4,5]pyrrolo[1,2-d][1,2,4]triazin-7(8H)-yl)-N-(pyridin-3-yl)acetamide]
Second: CC(C)c1nn(CC(=O)N[C@@H]2CCC(=O)N(C)C2)c(=O)c2cc3scnc3n12 [Ex 97, (R)-2-(5-Isopropyl-8-oxothiazolo[5′,4′:4,5]pyrrolo[1,2-d][1,2,4]triazin-7(8H)-yl)-N-(1-methyl-6-oxopiperidin-3-yl)acetamide]
The IC50 of the first is 12-fold higher: 220 nM for the first, 18.3 nM for the second. The second is the more potent here.

First: CC(C)c1nn(CC(=O)N[C@H]2CC[C@@H](C(=O)O)CC2)c(=O)c2cc3sc(Cl)cc3n12 [Ex 54, (1s,4s)-4-(2-(2-Chloro-5-isopropyl-8-oxothieno[2′,3′:4,5]pyrrolo[1,2-d][1,2,4]triazin-7(8H)-yl)acetamido)cyclohexane-1-carboxylic acid]
Second: CC(C)(O)c1nn(CC(=O)N[C@H]2CC[C@H](C(=O)O)CC2)c(=O)c2cc3sc(Cl)cc3n12 [Ex 122, (1r,4r)-4-(2-(2-Chloro-5-(2-hydroxypropan-2-yl)-8-oxothieno[2′,3′:4,5]pyrrolo[1,2-d][1,2,4]triazin-7(8H)-yl)acetamido)cyclohexane-1-carboxylic acid]
The IC50 of the first is 2.1-fold higher: 562 nM for the first, 267 nM for the second.

Cc1n[nH]c2cc(NC(=O)Cn3nc(C(C)(C)O)n4c(cc5sc(Cl)cc54)c3=O)ccc12 [Ex 66, 2-(2-Chloro-5-(2-hydroxypropan-2-yl)-8-oxothieno[2′,3′:4,5]pyrrolo[1,2-d][1,2,4]triazin-7(8H)-yl)-N-(3-methyl-1H-indazol-6-yl)acetamide] and CC(C)(O)c1nn(CC(=O)Nc2ccc3cn[nH]c3c2)c(=O)c2cc3sc(Cl)cc3n12 [Ex 65, 2-(2-Chloro-5-(2-hydroxypropan-2-yl)-8-oxothieno[2′,3′:4,5]pyrrolo[1,2-d][1,2,4]triazin-7(8H)-yl)-N-(1H-indazol-6-yl)acetamide] are within 1.5-fold of each other in IC50: 7.8 nM for the first, 6.2 nM for the second.

First: CC(C)(O)CCNC(=O)Cn1nc(C(C)(C)O)n2c(cc3sc(Cl)cc32)c1=O [Ex 80]
Second: CC(C)(O)c1nn(CC(=O)N[C@@H]2CCNC2)c(=O)c2cc3sc(Cl)cc3n12 [Ex 106, (R)-2-(2-Chloro-5-(2-hydroxypropan-2-yl)-8-oxothieno[2′,3′:4,5]pyrrolo[1,2-d][1,2,4]triazin-7(8H)-yl)-N-(pyrrolidin-3-yl)acetamide]
The IC50 of the first is 36-fold lower: 60.7 nM for the first, 2180 nM for the second.

Compared with CC(C)c1nn(CC(=O)N[C@H]2C[C@H](O)C2)c(=O)c2cc3sc(Cl)cc3n12 [Ex 108, 2-(2-Chloro-5-isopropyl-8-oxothieno[2′,3′:4,5]pyrrolo[1,2-d][1,2,4]triazin-7(8H)-yl)-N-((1r,3r)-3-hydroxycyclobutyl)acetamide], CC(C)c1nn(CC(=O)N[C@H]2C[C@](C)(O)C2)c(=O)c2cc3sc(F)cc3n12 [Ex 86, 2-(2-Fluoro-5-isopropyl-8-oxothieno[2′,3′:4,5]pyrrolo[1,2-d][1,2,4]triazin-7(8H)-yl)-N-((1r,3r)-3-hydroxy-3-methylcyclobutyl)acetamide] is 2.5-fold lower in IC50: 101 nM for the first, 41.2 nM for the second. The second is the more potent here.

First: CC(C)(O)c1nn(CC(=O)N[C@H]2CCNC2)c(=O)c2cc3sc(Cl)cc3n12 [Ex 107, (S)-2-(2-Chloro-5-(2-hydroxypropan-2-yl)-8-oxothieno[2′,3′:4,5]pyrrolo[1,2-d][1,2,4]triazin-7(8H)-yl)-N-(pyrrolidin-3-yl)acetamide]
Second: CC(C)c1nn(CC(=O)Nc2cccnc2Cl)c(=O)c2cc3sc(Cl)cc3n12 [Ex 13, 2-(2-Chloro-5-isopropyl-8-oxothieno[2′,3′:4,5]pyrrolo[1,2-d][1,2,4]triazin-7(8H)-yl)-N-(2-chloropyridin-3-yl)acetamide]
The IC50 of the first is 47-fold higher: 4400 nM for the first, 94 nM for the second.

Going from CC(C)c1nn(CC(=O)NC[C@@H](C)O)c(=O)c2cc3scnc3n12 [Ex 95, (R)-N-(2-Hydroxypropyl)-2-(5-isopropyl-8-oxothiazolo[5′,4′:4,5]pyrrolo[1,2-d][1,2,4]triazin-7(8H)-yl)acetamide] to CC(C)c1nn(CC(=O)NCCC(C)(C)O)c(=O)c2cc3scnc3n12 [Ex 94, N-(3-Hydroxy-3-methylbutyl)-2-(5-isopropyl-8-oxothiazolo[5′,4′:4,5]pyrrolo[1,2-d][1,2,4]triazin-7(8H)-yl)acetamide], the IC50 falls from 246 nM to 64.9 nM (3.8-fold).

CC(C)c1nn(CC(=O)Nc2ncncc2F)c(=O)c2cc3sc(Cl)cc3n12 [Ex 15, 2-(2-Chloro-5-isopropyl-8-oxothieno[2′,3′:4,5]pyrrolo[1,2-d][1,2,4]triazin-7(8H)-yl)-N-(5-fluoropyrimidin-4-yl)acetamide] showed an IC50 of 5.4 nM.

Test system: NF-kB-dependent TNF-α secretion
Test: TNF-α secretion assay (counterscreen)
Type: cell-based
Settings: Homo sapiens; THP-1 cells, Pam3CSK4-stimulated, 3 hours, HTRF
Procedure: Monocytic THP-1 cells were maintained according to providers' instructions in RPMI media as described above. Undifferentiated cells were plated at 50,000 cells per well in a 384-well flat-bottom cell culture plates (Greiner, #781986), and allowed to rest overnight. Experimental compounds were prepared and added as described above. TNF-α secretion was triggered by the addition of either 1 μg/mL LPS (Sigma, #L4391) or 100 ng/mL Pam3CSK4 (Invivogen, #tlrl-pms) depending on the experiment, and cells were incubated for 3 hours. 10 μL supernatant was removed, and TNF-α levels were monitored using an HTRF assay (CisBio, #62TNFPEC) according to manufacturers' instructions. Viability was monitored as described above.
as §1, with “suite. […]” for “suite.”

CC(C)(O)c1nn(CC(=O)N[C@@H]2CCCN(CC(F)(F)F)C2)c(=O)c2cc3sc(Cl)cc3n12 [Ex 82, (R)-2-(2-Chloro-5-(2-hydroxypropan-2-yl)-8-oxothieno[2′,3′:4,5]pyrrolo[1,2-d][1,2,4]triazin-7(8H)-yl)-N-(1-(2,2,2-trifluoroethyl)piperidin-3-yl)acetamide] and CN1CCC[C@@H](NC(=O)Cn2nc(C(C)(C)O)n3c(cc4sc(Cl)cc43)c2=O)C1 [Ex 60, (R)-2-(2-Chloro-5-(2-hydroxypropan-2-yl)-8-oxothieno[2′,3′:4,5]pyrrolo[1,2-d][1,2,4]triazin-7(8H)-yl)-N-(1-methylpiperidin-3-yl)acetamide] cannot be ordered by IC50: > 100 µM for the first, > 100 µM for the second.

CC(C)(O)c1nn(CC(=O)N[C@@H]2CCC[C@H](O)C2)c(=O)c2cc3sc(Cl)cc3n12 [Ex 81, 2-(2-Chloro-5-(2-hydroxypropan-2-yl)-8-oxothieno[2′,3′:4,5]pyrrolo[1,2-d][1,2,4]triazin-7(8H)-yl)-N-((1R,3S)-3-hydroxycyclohexyl)acetamide] and CC(C)c1nn(CC(=O)N[C@@H]2CCCNC2)c(=O)c2cc3sc(Cl)cc3n12 [Ex 10, (R)-2-(2-Chloro-5-isopropyl-8-oxothieno[2′,3′:4,5]pyrrolo[1,2-d][1,2,4]triazin-7(8H)-yl)-N-(piperidin-3-yl)acetamide] cannot be ordered by IC50: > 100 µM for the first, > 100 µM for the second.

O=C(Cn1nc(C2CC2)n2c(cc3scnc32)c1=O)Nc1cccnc1 [Ex 4, 2-(5-Cyclopropyl-8-oxothiazolo[5′,4′:4,5]pyrrolo[1,2-d][1,2,4]triazin-7(8H)-yl)-N-(pyridin-3-yl)acetamide] and CC(C)c1nn(CC(=O)Nc2cccnc2)c(=O)c2cc3sc(Cl)cc3n12 [Ex 2, 2-(2-Chloro-5-isopropyl-8-oxothieno[2′,3′:4,5]pyrrolo[1,2-d][1,2,4]triazin-7(8H)-yl)-N-(pyridin-3-yl)acetamide] cannot be ordered by IC50: > 100 µM for the first, > 100 µM for the second.

CC(C)c1nn(CC(=O)N[C@H]2CC[C@@H](C(=O)O)CC2)c(=O)c2cc3sc(Cl)cc3n12 [Ex 54, (1s,4s)-4-(2-(2-Chloro-5-isopropyl-8-oxothieno[2′,3′:4,5]pyrrolo[1,2-d][1,2,4]triazin-7(8H)-yl)acetamido)cyclohexane-1-carboxylic acid] and CC(C)c1nn(CC(=O)NC2CCOCC2)c(=O)c2cc3sc(Cl)cc3n12 [Ex 75, 2-(2-Chloro-5-isopropyl-8-oxothieno[2′,3′:4,5]pyrrolo[1,2-d][1,2,4]triazin-7(8H)-yl)-N-(tetrahydro-2H-pyran-4-yl)acetamide] cannot be ordered by IC50: > 100 µM for the first, > 100 µM for the second.

CC(C)c1nn(CC(=O)N[C@@H]2CCCN(C)C2)c(=O)c2cc3sc(Cl)cc3n12 [Ex 17, (R)-2-(2-Chloro-5-isopropyl-8-oxothieno[2′,3′:4,5]pyrrolo[1,2-d][1,2,4]triazin-7(8H)-yl)-N-(1-methylpiperidin-3-yl)acetamide] and CC(C)c1nn(CC(=O)N[C@H]2CCCN(C)C2)c(=O)c2cc3sc(Cl)cc3n12 [Ex 18, (S)-2-(2-Chloro-5-isopropyl-8-oxothieno[2′,3′:4,5]pyrrolo[1,2-d][1,2,4]triazin-7(8H)-yl)-N-(1-methylpiperidin-3-yl)acetamide] cannot be ordered by IC50: > 100 µM for the first, > 100 µM for the second.

CC(C)c1nn(CC(=O)N[C@@H]2CCCN(C)C2)c(=O)c2cc3scnc3n12 [Ex 48, (R)-2-(5-Isopropyl-8-oxothiazolo[5′,4′:4,5]pyrrolo[1,2-d][1,2,4]triazin-7(8H)-yl)-N-(1-methylpiperidin-3-yl)acetamide] and CC(C)c1nn(CC(=O)N[C@@H]2CCCN(C3CCC3)C2)c(=O)c2cc3sc(Cl)cc3n12 [Ex 125, (R)-2-(2-Chloro-5-isopropyl-8-oxothieno[2′,3′:4,5]pyrrolo[1,2-d][1,2,4]triazin-7(8H)-yl)-N-(1-cyclobutylpiperidin-3-yl)acetamide] cannot be ordered by IC50: > 100 µM for the first, > 33 µM for the second.

In the case of CC(C)c1nn(CC(=O)Nc2cccnc2)c(=O)c2cc3sc(F)cc3n12 [Ex 5, 2-(2-Fluoro-5-isopropyl-8-oxothieno[2,3′:4,5]pyrrolo[1,2-d][1,2,4]triazin-7(8H)-yl)-N-(pyridin-3-yl)acetamide], the IC50 is reported as > 100 µM.
